System: 168753-222-R-J1-PDC complex spheroid viability
Assay: Anticancer human tumor 168753-222-R-J1-PDC patient-derived bladder carcinoma cell line growth inhibition [CLK]
Conditions: for IC50: curve of first compound; for viability, T/C: stronger effect = lower value
Summary of the method: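 Patient-derived tumor cells grown as complex spheroids with HUVEC endothelial cells and mesenchymal stem cells, treated with drug combinations. Concentrations descend in half-log steps from near clinical Cmax, or from 10 microM if Cmax unknown.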

[1] = second compound 0.0316 µM, first compound 0.0316 µM
[2] = second compound 0.0316 µM, first compound 0.1 µM
[3] = second compound 0.0316 µM, first compound 0.316 µM
[4] = second compound 0.0316 µM, first compound 1 µM
[5] = second compound 0.1 µM, first compound 0.0316 µM
[6] = second compound 0.1 µM, first compound 0.1 µM
[7] = second compound 0.1 µM, first compound 0.316 µM
[8] = second compound 0.1 µM, first compound 1 µM
[9] = second compound 0.316 µM, first compound 0.0316 µM
[10] = second compound 0.316 µM, first compound 0.1 µM
[11] = second compound 0.316 µM, first compound 0.316 µM
[12] = second compound 0.316 µM, first compound 1 µM
[13] = second compound 1 µM, first compound 0.0316 µM
[14] = second compound 1 µM, first compound 0.1 µM
[15] = second compound 1 µM, first compound 0.316 µM
[16] = second compound 1 µM, first compound 1 µM
[17] = second compound 3.16 µM, first compound 0.0316 µM
[18] = second compound 3.16 µM, first compound 0.1 µM
[19] = second compound 3.16 µM, first compound 0.316 µM
[20] = second compound 3.16 µM, first compound 1 µM
[21] = second compound 10 µM, first compound 0.0316 µM
[22] = second compound 10 µM, first compound 0.1 µM
[23] = second compound 10 µM, first compound 0.316 µM
[24] = second compound 10 µM, first compound 1 µM
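Further: viability measured after seven days of drug exposure.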
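Wherever viability, T/C is given: luminescence signal used as surrogate for viable cell amount; 100% = DMSO vehicle control wells.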

`CC(=O)O[C@H]1C(=O)[C@@]2(C)[C@H]([C@H](OC(=O)c3ccccc3)[C@]3(O)C[C@H](OC(=O)[C@H](O)[C@@H](NC(=O)c4ccccc4)c4ccccc4)C(C)=C1C3(C)C)[C@]1(OC(C)=O)CO[C@@H]1C[C@@H]2O` + CN1CCN(c2cc(C(=O)Nc3cc4cc(-c5cnn(C)c5)ccc4cn3)ccn2)CC1 was tested, and the IC50 (second compound 0.0316 µM) was < 31.6 nM, the IC50 (second compound 0.1 µM) was < 31.6 nM and the IC50 (second compound 0.316 µM) was < 31.6 nM. For the same molecule, the IC50 (second compound 1 µM) was < 31.6 nM, the IC50 (second compound 3.16 µM) was < 31.6 nM and the IC50 (second compound 10 µM) was < 31.6 nM. For the same molecule, the viability, T/C [1] was 22.1%, the viability, T/C [2] was 11.1% and the viability, T/C [3] was 11.2%. For the same molecule, the viability, T/C [4] was 10.7%, the viability, T/C (second compound 0.0316 µM, first compound 3.16 µM) was 11.2% and the viability, T/C (second compound 0.0316 µM, first compound 10 µM) was 12.3%. For the same molecule, the viability, T/C [5] was 12.3%, the viability, T/C [6] was 10.6% and the viability, T/C [7] was 10.9%. The viability, T/C [8] was 9.64%, the viability, T/C (second compound 0.1 µM, first compound 3.16 µM) was 9.88% and the viability, T/C (second compound 0.1 µM, first compound 10 µM) was 11.4%. It also gave a viability, T/C [9] of 10.7%, a viability, T/C [10] of 10.2% and a viability, T/C [11] of 10.4%. The viability, T/C [12] was 9.61%, the viability, T/C (second compound 0.316 µM, first compound 3.16 µM) was 10.3% and the viability, T/C (second compound 0.316 µM, first compound 10 µM) was 13.2%. The viability, T/C [13] was 0.12%, the viability, T/C [14] was 0.32% and the viability, T/C [15] was 0.16%. For the same molecule, the viability, T/C [16] was 0.11%, the viability, T/C (second compound 1 µM, first compound 3.16 µM) was 0.15% and the viability, T/C (second compound 1 µM, first compound 10 µM) was 0.21%. The viability, T/C [17] was 0.05%, the viability, T/C [18] was 0.19% and the viability, T/C [19] was 0.17%. For the same molecule, the viability, T/C [20] was 0.06%, the viability, T/C (second compound 3.16 µM, first compound 3.16 µM) was 0.09% and the viability, T/C (second compound 3.16 µM, first compound 10 µM) was 0.14%. For the same molecule, the viability, T/C [21] was 0.07%, the viability, T/C [22] was 0.11% and the viability, T/C [23] was 0.51%. It also gave a viability, T/C [24] of 0.1%, a viability, T/C (second compound 10 µM, first compound 3.16 µM) of 0.17% and a viability, T/C (second compound 10 µM, first compound 10 µM) of 0.23%.
`CCc1c2c(nc3ccc(O)cc13)-c1cc3c(c(=O)n1C2)COC(=O)[C@]3(O)CC` + CN1CCN(c2cc(C(=O)Nc3cc4cc(-c5cnn(C)c5)ccc4cn3)ccn2)CC1 was tested, and the IC50 (second compound 0.0316 µM) was 16.9 nM, the IC50 (second compound 0.1 µM) was < 3.16 nM and the IC50 (second compound 0.316 µM) was < 3.16 nM. The IC50 (second compound 1 µM) was < 3.16 nM, the IC50 (second compound 3.16 µM) was < 3.16 nM and the IC50 (second compound 10 µM) was < 3.16 nM. It also gave a viability, T/C (second compound 0.0316 µM, first compound 0.00316 µM) of 77.7%, a viability, T/C (second compound 0.0316 µM, first compound 0.01 µM) of 65.3% and a viability, T/C [1] of 29.3%. It also gave a viability, T/C [2] of 30.1%, a viability, T/C [3] of 13.1% and a viability, T/C [4] of 8.39%. For the same molecule, the viability, T/C (second compound 0.1 µM, first compound 0.00316 µM) was 32.6%, the viability, T/C (second compound 0.1 µM, first compound 0.01 µM) was 36.1% and the viability, T/C [5] was 20.5%. The viability, T/C [6] was 12.4%, the viability, T/C [7] was 8.78% and the viability, T/C [8] was 6.92%. For the same molecule, the viability, T/C (second compound 0.316 µM, first compound 0.00316 µM) was 9.06%, the viability, T/C (second compound 0.316 µM, first compound 0.01 µM) was 8.44% and the viability, T/C [9] was 7.99%. The viability, T/C [10] was 9.04%, the viability, T/C [11] was 2.19% and the viability, T/C [12] was 0.99%. It also gave a viability, T/C (second compound 1 µM, first compound 0.00316 µM) of 0.14%, a viability, T/C (second compound 1 µM, first compound 0.01 µM) of 0.16% and a viability, T/C [13] of 0.1%. It also gave a viability, T/C [14] of 0.08%, a viability, T/C [15] of 0.24% and a viability, T/C [16] of 1.02%. The viability, T/C (second compound 3.16 µM, first compound 0.00316 µM) was 0.15%, the viability, T/C (second compound 3.16 µM, first compound 0.01 µM) was 0.15% and the viability, T/C [17] was 0.25%. The viability, T/C [18] was 0.08%, the viability, T/C [19] was 0.11% and the viability, T/C [20] was 0.31%. For the same molecule, the viability, T/C (second compound 10 µM, first compound 0.00316 µM) was 0.66%, the viability, T/C (second compound 10 µM, first compound 0.01 µM) was 0.14% and the viability, T/C [21] was 0.19%. The viability, T/C [22] was 0.14%, the viability, T/C [23] was 0.18% and the viability, T/C [24] was 0.45%.

— PubChem BioAssay AID2060626 (Molecular Pharmacology Branch, DTP, NCI, 2025)
